This note sets out measurements from US20040152739A1, “Acyclic pyrazole compounds for the inhibition of mitogen activated protein kinase-activated protein kinase-2” (priority 2002, published 2004).

pIC50: −log10 of the molar value. Counter-ions that a name gives are not always drawn.

One assay deals with MK-2 (Homo sapiens, UniProt P49137). Kind of assay: Determination of MK-2 IC50 (anion exchange resin capture assay, HSP-peptide phosphorylation). It counts as biochemical. The settings on record: MK-2 Avg. IC50.
Sequence of MK-2 (P49137 whole entry, species assumed): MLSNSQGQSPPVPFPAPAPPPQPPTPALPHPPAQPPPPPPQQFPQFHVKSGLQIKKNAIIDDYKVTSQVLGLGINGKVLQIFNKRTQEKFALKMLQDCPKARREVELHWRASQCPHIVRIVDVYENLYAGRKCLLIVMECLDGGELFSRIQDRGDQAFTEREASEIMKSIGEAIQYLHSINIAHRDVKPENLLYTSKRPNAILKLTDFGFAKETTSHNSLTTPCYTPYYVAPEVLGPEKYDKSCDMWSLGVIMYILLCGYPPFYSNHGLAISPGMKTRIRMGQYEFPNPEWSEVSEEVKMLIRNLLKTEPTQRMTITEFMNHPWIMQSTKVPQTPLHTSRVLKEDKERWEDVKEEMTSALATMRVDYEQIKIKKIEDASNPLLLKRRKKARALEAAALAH
Description: The phosphorylation of HSP-peptide ([sequence]) by MAPKAPK2 was measured using an anion exchange resin capture assay method. […] The reaction was terminated and [γ^33P]ATP was removed from solution by the addition of 150 μl of AG 1×8 ion exchange resin in 900 mM sodium formate pH 3.0. A 50 μl aliquot of head volume was removed from the quenched reaction mixture and added to a 96-well plate, 150 μl of Microscint-40 (Packard) was added and the amount of phosphorylated-peptide was determined. Allow the Microscint to sit in the plates for 60 minutes prior to counting.
Compounds are evaluated as potential inhibitors of the MK2 kinase by measuring their effects on MK2 phosphorylation of the peptide substrate. Compounds may be screened initially at two concentrations prior to determination of IC50 values. Screening results are expressed as percent inhibition at the concentrations of compound tested. For IC50 value determinations, compounds are tested at six concentrations in ten-fold serial dilutions with each concentration tested in triplicate. Results are expressed as IC50 values in micromolar. The assay is performed at a final concentration of 2% DMSO.
Compounds are evaluated as potential inhibitors of the MK-2 kinase by measuring their effects on MK-2 phosphorylation of the peptide substrate. Compounds may be screened initially at two concentrations prior to determination of IC50 values. Screening results are expressed as percent inhibition at the concentrations of compound tested. For IC50 value determinations, compounds are tested at six concentrations in ten-fold serial dilutions with each concentration tested in triplicate. Results are expressed as IC50 values in micromolar. The assay is performed at a final concentration of 2% DMSO.
On to `CCOC(=O)c1cc(-c2ccnc(-c3ccc(O[Si](C)(C)C(C)(C)C)cc3)c2)nn1CCN` [Example 136, ethyl 1-(2-aminoethyl)-3-[2-(4-{[tert-butyl(dimethyl)silyl]oxy}phenyl)pyridin-4-yl]-1H-pyrazole-5-carboxylate dihydrochloride], for which the pIC50 is 4.55.

The assay is the same for the next values; noted with them: read-out: MK-2 Avg. IC50.
Consider `O=Cc1c[nH]c2ccc(-c3cc(-c4cc5n(n4)CCNC5=O)ccn3)cc12` [Example 53, hydrochloride], for which the negative-log IC50 (pIC50) is 6.03.

Regarding `O=C1NCCn2nc(-c3ccnc(-c4ccoc4)c3)cc21` [Example 73, hydrochloride], the pIC50 was 5.84.

`O=C1NCCn2nc(-c3ccnc(-c4cccc([N+](=O)[O-])c4)c3)cc21` [Example 13, dihydrochloride]: the pIC50 is 6.77.

Take `CCOC(=O)c1cc(-c2ccnc(-c3cnc4ccccc4c3)c2)nn1CCN` [Example 58, hydrochloride]: the pIC50 is 5.99.

Turning to `O=C1NCCCn2nc(-c3ccnc(-n4ccnn4)c3)cc21` [Example 121, 2-[2-(1H-1,2,3-triazol-1-yl)pyridin-4-yl]-5,6,7,8-tetrahydro-4H-pyrazolo[1,5-a][1,4]diazepin-4-one hydrochloride], the pIC50 is 5.04.

As for `CCOC(=O)N1CCN(CCOc2cccc(-c3cc(-c4cc5n(n4)CCNC5=O)ccn3)c2)CC1` [Example 95, trifluoroacetate], the pIC50 was 5.52.

Take `NCCCn1nc(-c2cccc(O)c2)cc1C(=O)O` [Example 150, 1-(3-aminopropyl)-3-(3-hydroxyphenyl)-1H-pyrazole-5-carboxylic acid trifluoroacetate]: the pIC50 is 3.82.

As to `CCCn1nc(-c2ccnc(-n3ccnc3)c2)cc1C(=O)O` [Example 127, 3-[2-(1H-imidazol-1-yl)pyridin-4-yl]-1-propyl-1H-pyrazole-5-carboxylic acid], the pIC50 is 4.84.

For the compound `O=C1NC(CCl)Cn2nc(-c3ccnc(-c4cnc5ccccc5c4)c3)cc21` (stereo not shown) [Example 64], the negative-log IC50 (pIC50) was 5.93.

Regarding `COc1ccc(-c2cc(-c3cc4n(n3)CCCNC4=O)ccn2)cc1` [Example 60], the pIC50 was 5.96.

Take `O=C1NCCn2nc(-c3ccnc(-c4ccc(F)c(F)c4)c3)cc21` [Example 146, 2-[2-(3,4-difluorophenyl)pyridin-4-yl]-6,7-dihydropyrazolo[1,5-a]pyrazin-4(5H)-one trifluoroacetate]: the pIC50 was 4.05.

Consider `NC(=O)C1Cn2nc(-c3ccnc(-c4cnc5ccccc5c4)c3)cc2C(=O)N1` (stereo not shown) [Example 57, trifluoroacetate], for which the pIC50 is 6.00.

As for `COc1ccc(-c2cc(-c3cc4n(n3)CCNC4=O)ccn2)cc1` [Example 26, dihydrochloride], the pIC50 was 6.50.

For `O=C1NCCCn2nc(-c3ccnc(-c4cnc5ccccc5c4)c3)cc21` [Example 39, trifluoroacetate], the pIC50 is 6.24.

`O=C1NCCn2nc(-c3ccnc(-n4cccn4)c3)cc21` [Example 103, 2-[2-(1H-pyrazol-1-yl)pyridin-4-yl]-6,7-dihydropyrazolo[1,5-a]pyrazin-4(5H)-one]: the pIC50 is 5.38.

As to `COc1cncc(-c2cc(-c3cc4n(n3)CCNC4=O)ccn2)c1` [Example 77, trifluoroacetate], the pIC50 is 5.77.

With `O=C1NCCn2nc(-c3ccnc(-n4cnc(-c5ccccc5)c4)c3)cc21` [Example 117, 2-[2-(4-phenyl-1H-imidazol-1-yl)pyridin-4-yl]-6,7-dihydropyrazolo[1,5-a]pyrazin-4(5H)-one], the pIC50 is 5.15.

For `CN(C)Cc1ccc(-c2cc(-c3cc4n(n3)CCNC4=O)ccn2)cc1` [Example 112, 2-(2-{4-[(dimethylamino)methyl]phenyl}pyridin-4-yl)-6,7-dihydropyrazolo[1,5-a]pyrazin-4(5H)-one trifluoroacetate], the negative logarithm of the IC50 (pIC50) was 5.27.

On to `NCCCn1nc(-c2ccnc(-c3cnc4ccccc4c3)c2)cc1C(N)=O` [Example 124, 1-(3-aminopropyl)-3-(2-quinolin-3-ylpyridin-4-yl)-1H-pyrazole-5-carboxamide dihydrochloride], for which the pIC50 was 4.97.

Turning to `CN(C)CCc1ccc(-c2cc(-c3cc4n(n3)CCNC4=O)ccn2)cc1` [Example 80, hydrochloride], the pIC50 was 5.70.

Regarding `O=C1NCCCn2nc(-c3ccnc(-n4ccnc4)c3)cc21` [Example 113, 2-[2-(1H-imidazol-1-yl)pyridin-4-yl]-5,6,7,8-tetrahydro-4H-pyrazolo[1,5-a][1,4]diazepin-4-one hydrochloride], the pIC50 was 5.25.

With `O=C1NCCn2nc(-c3ccnc(-c4nc5ccccc5s4)c3)cc21` [Example 104, 2-[2-(1,3-benzothiazol-2-yl)pyndin-4-yl]-6,7-dihydropyrazolo[1,5-a]pyrazin-4(5H)-one], the pIC50 is 5.37.

Take `Cc1ccc(C(C)CCNCCn2nc(-c3ccncc3)cc2C(=O)O)o1` (stereo not shown) [Example 134, 1-(2-{[3-(5-methyl-2-furyl)butyl]amino}ethyl)-3-pyridin-4-yl-1H-pyrazole-5-carboxylic acid trifluoroacetate]: the pIC50 is 4.57.

Consider `O=C1NCCn2nc(-c3ccnc(-c4ccc5cc[nH]c5c4)c3)cc21` [Example 55, hydrochloride], for which the pIC50 was 6.03.

For the compound `O=C1NCCn2nc(-c3ccnc(-n4ccnc4)c3)cc21` [Example 70, hydrochloride], the pIC50 was 5.87.

Consider `CCOC(=O)c1cc(-c2ccnc(-c3ccc(O)cc3)c2)nn1CCCN` [Example 141, ethyl 1-(3-aminopropyl)-3-[2-(4-hydroxyphenyl)pyridin-4-yl]-1H-pyrazole-5-carboxylate hydrochloride], for which the pIC50 was 4.32.

Consider `O=C1NCCCn2nc(-c3ccnc(-c4cccc([N+](=O)[O-])c4)c3)cc21` [Example 66], for which the negative-log IC50 (pIC50) is 5.90.

Consider `O=C(O)CCc1ccc(-c2cc(-c3cc4n(n3)CCNC4=O)ccn2)cc1` [Example 102, 3-{4-[4-(4-oxo-4,5,6,7-tetrahydropyrazolo[1,5-a]pyrazin-2-yl)pyridin-2-yl]phenyl}propanoic acid], for which the pIC50 was 5.38.

Take `O=C1NCCCn2nc(-c3ccnc(-c4ccc(O)cc4)c3)cc21` [Example 71, hydrochloride]: the pIC50 was 5.86.

With `O=C1NCCn2nc(-c3ccnc(-c4cccc(OCCN5CCNCC5)c4)c3)cc21` [Example 84], the pIC50 was 5.67.

Consider `NCCCn1nc(-c2ccnc(-c3cccc([N+](=O)[O-])c3)c2)cc1C(=O)O` [Example 2, dihydrochloride], for which the pIC50 is 7.40.

On to `COc1ccc(-c2cc(C(=O)O)n(CCCNC(=O)OC(C)(C)C)n2)cc1` [Example 151, 1-{3-[(tert-butoxycarbonyl)amino]propyl}-3-(4-methoxyphenyl)-1H-pyrazole-5-carboxylic acid], for which the pIC50 is 3.81.

For “2-[2-(2H-1,2,3-triazol-2-yl)pyridin-4-yl]-6,7- dihydropyrazolo[1,5-a]pyrazin-4(5H)-one compound with 2-[2-(1H-1,2,3-triazol-1- yl)pyridin-4-yl]-6,7-dihydropyrazolo[1,5- a]pyrazin-4(5H)-one (1:1) [Example 109]”, the negative-log IC50 (pIC50) is 5.28.

Turning to `O=C1NCCn2nc(-c3ccnc(-c4cccc(F)c4)c3)cc21` [Example 33, hydrochloride], the negative logarithm of the IC50 (pIC50) is 6.30.

As to `O=C1NCCn2nc(-c3ccnc(/C=C/c4cccnc4)c3)cc21` [Example 18, dihydrochloride], the pIC50 was 6.67.

With `O=C1NCCn2nc(-c3ccnc(-c4cccc(Cl)c4)c3)cc21` [Example 44, trifluoroacetate], the pIC50 is 6.20.

On to `CN(C)CCOc1cccc(-c2cc(-c3cc4n(n3)CCNC4=O)ccn2)c1` [Example 87], for which the pIC50 is 5.62.

With `O=C1NCCn2nc(-c3ccnc(-c4cccc(Cl)c4)c3)c(Cl)c21` [Example 61, 3-chloro-2-[2-(3-chlorophenyl)pyridin-4-yl]-6,7-dihydropyrazolo[1,5-a]pyrazin-4(5H)-one], the pIC50 is 5.95.

For `O=C1NCCn2nc(-c3ccnc(-c4ccc5ccncc5c4)c3)cc21` [Example 14], the pIC50 is 6.71.

For `O=C1NCCn2nc(-c3ccnc(-c4ccc5c(c4)CCN5)c3)cc21` [Example 59, hydrochloride], the negative-log IC50 (pIC50) was 5.97.

For the compound `CN(C)c1ncnc2ccc(-c3cc(-c4cc5n(n4)CCNC5=O)ccn3)cc12` [Example 86], the pIC50 was 5.62.

Regarding `CCOC(=O)c1cc(-c2ccnc(-c3cccc(O)c3)c2)nn1CCN` [Example 108, ethyl 1-(2-aminoethyl)-3-[2-(3-hydroxyphenyl)pyridin-4-yl]-1H-pyrazole-5-carboxylate dihydrochloride], the pIC50 was 5.30.

Take `O=C1NCCn2nc(-c3ccnc(-c4nccs4)c3)cc21` [Example 67, trifluoroacetate]: the negative logarithm of the IC50 (pIC50) was 5.89.

Regarding `O=C1NCCn2nc(-c3ccnc(-c4cccc(O)c4)c3)cc21` [Example 35, trifluoroacetate], the negative-log IC50 (pIC50) is 6.28.

In the case of `COc1ccc(-c2cc(-c3cc(C(=O)O)n(CCCN)n3)ccn2)cc1` [Example 15, trifluoroacetate], the pIC50 is 6.71.

Take `O=C1NCCn2nc(-c3ccnc(-c4ccc5ncccc5c4)c3)cc21` [Example 23, dihydrochloride]: the pIC50 was 6.53.

For `CN(C)c1ccc(-c2cc(-c3cc4n(n3)CCNC4=O)ccn2)cc1` [Example 74, hydrochloride], the negative-log IC50 (pIC50) was 5.82.

Take `O=C1NCCn2nc(-c3ccnc(-c4ccc(C(=O)N5CCOCC5)cc4)c3)cc21` [Example 101, 2-{2-[4-(morpholin-4-ylcarbonyl)phenyl]pyridin-4-yl}-6,7-dihydropyrazolo[1,5-a]pyrazin-4(5H)-one]: the pIC50 was 5.44.

Take `O=C1NC(CO)Cn2nc(-c3ccnc(C4CNc5ccccc5C4)c3)cc21` (stereo not shown) [Example 107, 6-(hydroxymethyl)-2-[2-(1,2,3,4-tetrahydroquinolin-3-yl)pyridin-4-yl]-6,7-dihydropyrazolo[1,5-a]pyrazin-4(5H)-one]: the pIC50 is 5.31.

As to `O=C1NCCn2nc(-c3ccnc(-c4ccc5c(c4)CCCN5)c3)cc21` [Example 49, dihydrochloride], the pIC50 was 6.08.

With `CN(C)c1cc(-c2cc3n(n2)CCNC3=O)ccn1` [Example 138, 2-[2-(dimethylamino)pyridin-4-yl]-6,7-dihydropyrazolo[1,5-a]pyrazin-4(5H)-one trifluoroacetate], the pIC50 was 4.43.
